We go through eight molecules from US8173704B2, “Difluorophenol derivatives and their use” (Bayer Pharma Aktiengesellschaft, priority 2005, dated 2012).

In assay [1] the test system is saphenous artery rings. The assay is described as follows: Vasorelaxant effect in vitro (phenylephrine-contracted artery rings). It is filed as cell-based. The conditions noted are these: rabbit saphenous artery rings, contraction induced by phenylephrine. As to the method: Rabbits are anesthetized and sacrificed by intravenous injection of thiopental sodium (about 50 mg/kg) and exsanguinated. The saphenous artery is removed and divided into rings 3 mm wide. The rings are mounted singly on in each case a pair of triangular hooks open at the end and made of 0.3 mm-thick special wire (Remanium®). Each ring is placed under an initial tension in 5 ml organ baths with Krebs-Henseleit solution which is at 37° C., is gassed with 95% O2/5% CO2 and has the following composition: NaCl 119 mM; KCl 4.8 mM; CaCl2×2H2O 1 mM; MgSO4×7 H2O 1.4 mM; KH2PO4 1.2 mM; NaHCO3 25 mM; glucose 10 mM; bovine serum albumin 0.001%. The force of contraction is detected with Statham UC2 cells, amplified and digitized via A/D converters (DAS-1802 HC, Keithley Instruments, Munich) and recorded in parallel on chart recorders. Contractions are induced by addition of phenylephrine.
After several (generally 4) control cycles, the substance to be investigated is added in each further run in increasing dosage, and the height of the contraction achieved under the influence of the test substance is compared with the height of the contraction reached in the last preceding run. The concentration necessary to reduce the contraction reached in the preceding control by 50% is calculated from this (IC50). The standard application volume is 5 μl. The proportion of DMSO in the bath solution corresponds to 0.1%.

In assay [2] the target is T1, Heme-containing sGC (recombinant soluble guanylate cyclase) (Rattus norvegicus, UniProt P20595).
T1 construct: made in house; host or cells: baculovirus/Sf9 insect cells
T1 sequence (P20595 1-619): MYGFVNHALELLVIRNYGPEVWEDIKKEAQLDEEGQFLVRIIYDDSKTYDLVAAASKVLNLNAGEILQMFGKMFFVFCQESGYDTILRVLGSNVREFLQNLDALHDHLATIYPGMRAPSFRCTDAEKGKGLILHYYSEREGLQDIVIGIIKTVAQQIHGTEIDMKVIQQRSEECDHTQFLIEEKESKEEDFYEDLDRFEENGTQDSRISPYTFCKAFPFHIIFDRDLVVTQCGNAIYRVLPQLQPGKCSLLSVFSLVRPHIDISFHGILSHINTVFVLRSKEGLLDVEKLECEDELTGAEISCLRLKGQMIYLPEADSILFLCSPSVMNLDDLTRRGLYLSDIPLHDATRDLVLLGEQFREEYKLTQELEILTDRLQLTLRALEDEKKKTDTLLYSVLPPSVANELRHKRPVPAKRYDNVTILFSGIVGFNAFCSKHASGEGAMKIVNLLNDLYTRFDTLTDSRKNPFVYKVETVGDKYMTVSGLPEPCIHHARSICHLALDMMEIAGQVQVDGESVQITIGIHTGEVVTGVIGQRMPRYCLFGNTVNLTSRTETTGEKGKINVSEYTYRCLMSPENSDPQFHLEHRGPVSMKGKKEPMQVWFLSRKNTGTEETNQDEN
T1 sequence (P19686 1-690 partner): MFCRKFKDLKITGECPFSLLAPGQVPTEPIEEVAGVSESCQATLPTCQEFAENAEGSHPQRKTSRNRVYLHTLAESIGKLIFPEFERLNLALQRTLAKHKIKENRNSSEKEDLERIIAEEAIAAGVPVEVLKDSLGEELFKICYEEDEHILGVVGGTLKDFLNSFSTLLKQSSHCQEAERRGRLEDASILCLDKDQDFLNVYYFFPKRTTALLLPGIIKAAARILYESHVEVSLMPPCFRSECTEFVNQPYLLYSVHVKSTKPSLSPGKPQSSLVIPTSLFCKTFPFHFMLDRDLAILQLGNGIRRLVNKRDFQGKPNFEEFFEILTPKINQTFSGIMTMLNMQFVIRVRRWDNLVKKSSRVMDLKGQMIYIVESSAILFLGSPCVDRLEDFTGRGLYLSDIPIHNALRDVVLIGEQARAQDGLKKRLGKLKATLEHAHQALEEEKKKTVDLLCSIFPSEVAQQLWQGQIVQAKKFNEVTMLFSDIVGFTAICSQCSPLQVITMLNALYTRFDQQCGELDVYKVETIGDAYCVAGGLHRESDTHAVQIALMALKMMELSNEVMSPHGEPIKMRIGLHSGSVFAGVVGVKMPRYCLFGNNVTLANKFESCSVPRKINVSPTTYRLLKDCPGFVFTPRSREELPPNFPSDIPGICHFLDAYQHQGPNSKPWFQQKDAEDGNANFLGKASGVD
As to the kind of experiment: Stimulation of recombinant soluble guanylate cyclase (sGC) in vitro, heme-containing enzyme. It counts as biochemical. An excerpt: Hoenicka, E. M. Becker, H. Apeler, T. Sirichoke, H. Schroeder, R. Gerzer and J.-P. Stasch, “Purified soluble guanylyl cyclase expressed in a baculovirus/Sf9 system: Stimulation by YC-1, nitric oxide, and carbon oxide”, J. Mol. Med. 77 (1999), 14-23. The heme-free guanylate cyclase is obtained by adding Tween 20 to the sample buffer (0.5% in the final concentration).
(§1) The activation of sGC by a test substance is reported as n-fold stimulation of the basal activity.

Assay [3] concerns the target T2, Heme-free sGC (recombinant soluble guanylate cyclase) (Rattus norvegicus, UniProt P20595).
T2 construct: made in house; host or cells: baculovirus/Sf9 insect cells
T2 sequence (P20595 1-619): T1 sequence (P20595 1-619)
T2 sequence (P19686 1-690 partner): T1 sequence (P19686 1-690 partner)
The assay is described as follows: Stimulation of recombinant soluble guanylate cyclase (sGC) in vitro, heme-free enzyme. It counts as biochemical. As to the method: Investigations on the stimulation of recombinant soluble guanylate cyclase (sGC) by the compounds according to the invention with and without sodium nitroprusside, and with and without the heme-dependent sGC inhibitor 1H-1,2,4-oxadiazole-(4,3a)-quinoxalin-1-one (ODQ) are carried out by the method described in detail in the following reference: M. Hoenicka, E. M. Becker, H. Apeler, T. Sirichoke, H. Schroeder, R. Gerzer and J.-P. Stasch, “Purified soluble guanylyl cyclase expressed in a baculovirus/Sf9 system: Stimulation by YC-1, nitric oxide, and […]”, J. Mol. Med. 77 (1999), 14-23. The heme-free guanylate cyclase is obtained by adding Tween 20 to the sample buffer (0.5% in the final concentration).
as §1

Where [4] appears, read: 0.001 μM Example 13 + 10 μM ODQ.

By IC50 is commonly meant the concentration that gives 50% inhibition. `O=C(O)CCCCC(/C=C/c1cc(F)ccc1OCc1ccc(-c2ccc(C(F)(F)F)cc2)cc1)Cc1cc(F)c(O)c(F)c1` (single isomer, unassigned) [Example 5, E-6-(3,5-Difluoro-4-hydroxybenzyl)-8-[5-fluoro-2-(4′-trifluoromethylbiphenyl-4-ylmethoxy)phenyl]oct-7-enoic acid] came in with an IC50 in assay [1] of 300 nM.
In assay [1], `CC(C)(C)c1ccc(COc2ccccc2/C=C/C(CCc2ccc(C(=O)O)cc2)Cc2cc(F)c(O)c(F)c2)cc1` (single isomer, unassigned) [Example 13, E4-[5-[2-(4-tert-Butylbenzyloxy)phenyl]-3-(3,5-difluoro-4-hydroxybenzyl)pent-4-enyl]benzoic acid] yielded an IC50 of 24.5 nM. In addition, the “Stimulation (n-fold) of heme-containing sGC, Basal” value in assay [2] (0.001 μM Example 13) amounted to 1.7 n-fold; in assay [2] (0.01 μM Example 13) it was 6.7 n-fold; in assay [2] (0.1 μM Example 13), 19.2 n-fold; in assay [2] (1 μM Example 13) it was 24.2 n-fold; in assay [2] (10 μM Example 13), 36.2 n-fold. Further, the “Stimulation (n-fold) of heme-containing sGC, +0.1 μM DEA/NO” value was determined as 26.3 n-fold in assay [2] (0.001 μM Example 13 + 0.1 μM DEA/NO); 31.2 n-fold in assay [2] (0.01 μM Example 13 + 0.1 μM DEA/NO); 40.2 n-fold in assay [2] (0.1 μM Example 13 + 0.1 μM DEA/NO); 43.2 n-fold in assay [2] (1 μM Example 13 + 0.1 μM DEA/NO); 62.0 n-fold in assay [2] (10 μM Example 13 + 0.1 μM DEA/NO). The “Stimulation (n-fold) of heme-containing sGC, +10 μM ODQ” value is 37.5 n-fold in assay [2] (setting [4]); 38.8 n-fold in assay [2] (0.01 μM Example 13 + 10 μM ODQ); 43.8 n-fold in assay [2] (0.1 μM Example 13 + 10 μM ODQ); 52.2 n-fold in assay [2] (1 μM Example 13 + 10 μM ODQ); 63.7 n-fold in assay [2] (10 μM Example 13 + 10 μM ODQ). Further, the “Effect of combination with the NO donor DEA/NO on sGC stimulation” value in assay [2] (combination with DEA/NO) is “no synergistic effect”. Besides, the “Effect of the heme-dependent sGC inhibitor ODQ on the sGC activation” value in assay [2] (with ODQ, effect is in fact increased) is given as “not blocked”. The “Stimulation (n-fold) of heme-free sGC, Basal” value in assay [3] (0.001 μM Example 13) turned out to be 4.1 n-fold; in assay [3] (0.01 μM Example 13), 30.6 n-fold; in assay [3] (0.1 μM Example 13) it was 94.4 n-fold; in assay [3] (1 μM Example 13), 122.8 n-fold; in assay [3] (10 μM Example 13), 126.3 n-fold. For the same molecule, the “Stimulation (n-fold) of heme-free sGC, +10 μM ODQ” value in assay [3] (setting [4]) came to 4.0 n-fold; in assay [3] (0.01 μM Example 13 + 10 μM ODQ) it was 27.1 n-fold; in assay [3] (0.1 μM Example 13 + 10 μM ODQ) it was 88.6 n-fold; in assay [3] (1 μM Example 13 + 10 μM ODQ), 118.5 n-fold; in assay [3] (10 μM Example 13 + 10 μM ODQ), 118.4 n-fold.
On to `O=C(O)CCCCC(/C=C\c1cc(F)ccc1OCc1ccc(-c2ccc(C(F)(F)F)cc2)cc1)Cc1cc(F)c(O)c(F)c1` (single isomer, unassigned) [Example 6, Z-6-(3,5-Difluoro-4-hydroxybenzyl)-8-[5-fluoro-2-(4′-trifluoromethylbiphenyl-4-ylmethoxy)phenyl]oct-7-enoic acid], for which, in assay [1] (Oryctolagus cuniculus), the IC50 was determined as 2700 nM. That is a single-digit micromolar value.
In turn, `CC(C)(C)c1ccc(COc2ccccc2/C=C/C(CCc2ccc(C(=O)O)cc2)Cc2cc(F)c(O)c(F)c2)cc1` (single isomer, unassigned) [Example 14, E-4-[5-[2-(4-tert-Butylbenzyloxy)phenyl]-3-(3,5-difluoro-4-hydroxybenzyl)pent-4-enyl]benzoic acid] displayed a 50% inhibitory concentration (IC50) in assay [1] of 1220 nM.
For `O=C(O)CCCCC(/C=C\c1cc(F)ccc1OCc1ccc(-c2ccc(C(F)(F)F)cc2)cc1)Cc1cc(F)c(O)c(F)c1` (single isomer, unassigned) [Example 7, Z-6-(3,5-Difluoro-4-hydroxybenzyl)-8-[5-fluoro-2-(4′-trifluoromethylbiphenyl-4-ylmethoxy)phenyl]oct-7-enoic acid], the midpoint of inhibition in assay [1], the IC50, lay at 2600 nM. Compared with the last molecule, the IC50 is about 2.1-fold higher.
On the same count and under the same terms, the result for `O=C(O)CCCCC(/C=C/c1cc(F)ccc1OCc1ccc(-c2ccc(C(F)(F)F)cc2)cc1)Cc1cc(F)c(O)c(F)c1` (single isomer, unassigned) [Example 4, E-6-(3,5-Difluoro-4-hydroxybenzyl)-8-[5-fluoro-2-(4′-trifluoromethylbiphenyl-4-ylmethoxy)phenyl]oct-7-enoic acid] reads 960 nM.
The molecule `O=C(O)CCCCN(CCc1cc(F)ccc1OCc1ccc(-c2ccc(C(F)(F)F)cc2)cc1)Cc1cc(F)c(O)c(F)c1` [Example 18, 5-{(3,5-Difluoro-4-hydroxybenzyl)-[2-(5-fluoro-2-{[4′-(trifluoromethyl)biphenyl-4-yl]methoxy}phenyl)ethyl]amino}pentanoic acid] registered a concentration for half-maximal inhibition (IC50) in assay [1] (Oryctolagus cuniculus) of 43 nM.
`O=C(O)CCCCC(/C=C/c1cc(F)ccc1OCc1ccccc1Cl)Cc1cc(F)c(O)c(F)c1` (single isomer, unassigned) [Example 8, E-8-[2-(2-Chlorobenzyloxy)-5-fluorophenyl]-6-(3,5-difluoro-4-hydroxybenzyl)oct-7-enoic acid]: the IC50 in assay [1] (Oryctolagus cuniculus) was 647 nM.
